Measured values from patent US20240316051A1, “A PHARMACEUTICAL COMBINATION AND USE THEREOF” (Ascentage Pharma (Suzhou) Co., Ltd., priority 2021, published 2024).
Like-named read-outs stand apart in the source and are kept apart here.

Biological target: T1, EED (1-441)-His protein (Homo sapiens, UniProt O75530)
T1 construct: 20 nM EED (1-441)-His protein
Assay: EED-H3K27Me3 peptide competition binding assay by AlphaScreen
Settings: read-out: Alpha screen
How it was run: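 EED(1-441)-His was preincubated 15 min with compound, then biotin-H3K27Me3(19-33) peptide added for 30 min; both were added as 20 nM solutions in 25 mM HEPES pH 8, 0.02% Tween-20, 0.5% BSA. Ni-chelate acceptor and streptavidin donor beads (10 μg/ml each final) were added for 1 h in the dark at RT. Signal read at 615 nm (680 nm excitation), normalised to controls and fitted to dose-response for IC50.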

T1 sequence (O75530 whole entry): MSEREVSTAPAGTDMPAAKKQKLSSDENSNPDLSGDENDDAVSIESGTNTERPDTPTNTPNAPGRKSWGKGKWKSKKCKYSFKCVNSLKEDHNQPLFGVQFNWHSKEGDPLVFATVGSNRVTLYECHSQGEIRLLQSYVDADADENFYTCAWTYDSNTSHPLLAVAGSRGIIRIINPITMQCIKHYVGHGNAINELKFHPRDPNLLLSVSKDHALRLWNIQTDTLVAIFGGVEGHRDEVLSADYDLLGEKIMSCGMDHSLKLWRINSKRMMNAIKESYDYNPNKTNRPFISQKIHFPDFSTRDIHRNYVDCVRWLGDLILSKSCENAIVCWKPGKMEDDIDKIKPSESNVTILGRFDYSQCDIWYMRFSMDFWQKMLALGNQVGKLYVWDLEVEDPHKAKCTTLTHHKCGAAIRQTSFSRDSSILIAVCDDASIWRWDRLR

SMILES	IC50 (Table 4A) [nM]	IC50 (IC50 class, Table 4B) [nM]
CN1CCC(N2Cc3cc(C(F)(F)F)ccc3-c3cnc(NCc4c(F)ccc5c4CCO5)n4cnc(c34)C2=O)CC1 [Compound 74, 12-(((5-fluoro-2,3-dihydrobenzofuran-4-yl)methyl)amino)-4-(1-methylpiperidin-4-yl)-7-(trifluoro-methyl)-4,5-dihydro-3H-2,4,11,12a-tetraazabenzo [4,5]cycloocta[1,2,3-cd]inden-3-one]	1.67	
O=C1c2ncn3c(NCc4c(F)ccc5c4CCO5)ncc(c23)-c2ccc(C(F)(F)F)cc2CN1CC(F)F [Compound 81, 4-(2,2-difluoroethyl)-12-(((5-fluoro-2,3-dihydro-benzofuran-4-yl)methyl)amino)-7-(trifluoromethyl)-4,5-dihydro-3H-2,4,11,12a-tetraazabenzo[4,5] cycloocta[1,2,3-cd]inden-3-one]	1.7	
O=C1OCc2ccc(C(F)(F)F)cc2-c2cnc(NCc3c(F)ccc4c3CCO4)n3cnc1c23 [Compound 24, 12-(((5-fluoro-2,3-dihydrobenzofuran-4-yl)methyl)amino)-8-(trifluoromethyl)-3H,5H-4-oxa-2,11,12a-triazabenzo[4,5]cycloocta[1,2,3-cd]inden-3-one]	4.75	
CN1CCC(CN2Cc3nc(C(F)(F)F)ccc3-c3cnc(NCc4c(F)ccc5c4CCO5)n4cnc(c34)C2=O)CC1 [Compound 42, 12-(((5-fluoro-2,3-dihydrobenzofuran-4-yl)methyl)amino)-4-((1-methylpiperidin-4-yl)methyl)-7-(trifluoromethyl)-4,5-dihydro-3H-2,4,6,11,12a-pentaazabenzo[4,5]cycloocta[1,2,3-cd]inden-3-one]	0.84	
O=C1c2ncn3c(NCc4c(F)ccc5c4CCO5)ncc(c23)-c2ccc(C(F)(F)F)nc2CN1C1CCOCC1 [Compound 51, 12-(((5-fluoro-2,3-dihydrobenzofuran-4-yl)methyl)amino)-4-(tetrahydro-2H-pyran-4-yl)-7-(trifluoromethyl)-4,5-dihydro-3H-2,4,6,11, 12a-pentaazabenzo [4,5]cycloocta[1,2,3-cd]inden-3-one]	0.7	
Fc1ccc2c(c1CNc1ncc3c4c(ncn14)COCc1ncccc1-3)CCO2 [Compound 2, N-((5-fluoro-2,3-dihydrobenzofuran-4-yl)methyl)-3H,5H-4-oxa-2,6,11,12a-tetraazabenzo[4,5]cycloocta[1,2,3-cd]inden-12-amine]	> 10	
CS(=O)(=O)c1ccc2c(c1)NC(=O)c1ncn3c(NCc4c(F)ccc5c4CCO5)ncc-2c13 [Compound 5, 11-(((5-fluoro-2,3-dihydrobenzofuran-4-yl)methyl)amino)-6-(methylsulfonyl)-2,4,10,11a-tetraazadibenzo[cd,f]azulen-3(4H)-one]	0.26	
COc1cccc(F)c1CNc1ncc2c3c(ncn13)C(=O)N(C(C)C)Cc1nc(C(F)(F)F)ccc1-2 [Compound 71, 12-((2-fluoro-6-methoxybenzyl)amino)-4-isopropyl-7-(trifluoromethyl)-4,5-dihydro-3H-2,4,6,11,12a-pentaazabenzo[4,5]cycloocta[1,2,3-cd]inden-3-one]	8.94	
O=C1c2ncn3c(NCc4c(F)ccc5c4CCO5)ncc(c23)-c2ccc(C(F)(F)F)nc2CN1CC1CC1 [Compound 55, 4-(cyclopropylmethyl)-12-(((5-fluoro-2,3-dihydrobenzofuran-4-yl)methyl)amino)-7-(trifluoromethyl)-4,5-dihydro-3H-2,4,6,11,12a-pentaazabenzo[4,5] cycloocta[1,2,3-cd]inden-3-one]	2.14	
O=C1OCc2nc(C(F)(F)F)ccc2-c2cnc(NCc3c(F)ccc4c3CCO4)n3cnc1c23 [Compound 14, 12-(((5-fluoro-2,3-dihydrobenzofuran-4-yl)methyl)amino)-7-(trifluoromethyl)-3H,5H-4-oxa-2,6,11, 12a-tetraazabenzo[4,5]cycloocta[1,2,3-cd]inden-3-one]	3.35	
O=C1OCc2ccccc2-c2cnc(NCc3c(F)ccc4c3CCO4)n3cnc1c23 [Compound 6, 12-(((5-fluoro-2,3-dihydrobenzofuran-4-yl)methyl)amino)-3H,5H-4-oxa-2,11,12a-triazabenzo[4,5] cycloocta[1,2,3-cd]inden-3-one]	0.19	
O=C1OCc2cc(C(F)(F)F)ncc2-c2cnc(NCc3c(F)ccc4c3CCO4)n3cnc1c23 [Compound 13, 12-(((5-fluoro-2,3-dihydrobenzofuran-4-yl)methyl)amino)-7-(trifluoromethyl)-3H,5H-4-oxa-2,8,11, 12a-tetraazabenzo[4,5]cycloocta[1,2,3-cd]inden-3-one]	1.09	

The next lines start with the values.

IC50 (Table 4A) [nM]	IC50 (IC50 class, Table 4B) [nM]	SMILES
	10 to 100	Cc1ccc2c(n1)Cc1conc1-c1ncn3c(NCc4c(F)ccc5c4CCO5)ncc-2c13 [E 36, N-((5-fluoro-2,3-dihydrobenzofuran-4-yl)methyl)-8-methyl-6H-4-oxa-2,3,7,12,13a-pentaazabenzo [4,5]cyclopenta[7,8]cycloocta[1,2,3-cd]inden-13-amine]
	< 10	CC(C)c1ccc2c(n1)CN(CC(F)(F)F)C(=O)c1ncn3c(NCc4c(F)ccc5c4CCO5)ncc-2c13 [E 15, 12-(((5-fluoro-2,3-dihydrobenzofuran-4-yl)methyl)amino)-7-isopropyl-4-(2,2,2-trifluoroethyl)-4,5-dihydro-3H-2,4,6,11,12a-pentaazabenzo[4,5] cycloocta[1,2,3-cd]inden-3-one]
	< 10	CCc1ccc2c(n1)CN(CC(C)(F)F)C(=O)c1ncn3c(NCc4c(F)ccc5c4CCO5)ncc-2c13 [E 16, 4-(2,2-difluoropropyl)-7-ethyl-12-(((5-fluoro-2,3-dihydrobenzofuran-4-yl)methyl)amino)-4,5-dihydro-3H-2,4,6,11,12a-pentaazabenzo[4,5]cycloocta [1,2,3-cd]inden-3-one]
	< 10	O=C1c2ncn3c(NCc4c(F)ccc5c4CCO5)ncc(c23)-c2ccc(C3CCC3)nc2CN1CC(F)(F)F [E 52, 7-cyclobutyl-12-(((5-fluoro-2,3-dihydrobenzofuran-4-yl)methyl)amino)-4-(2,2,2-trifluoroethyl)-4,5-dihydro-3H-2,4,6,11,12a-pentaazabenzo[4,5] cycloocta[1,2,3-cd]inden-3-one]
	< 10	Cc1cnc2n1Cc1cc(C(F)(F)F)ncc1-c1cnc(NCc3c(F)ccc4c3CCO4)n3cnc-2c13 [E 10, N-((5-fluoro-2,3-dihydrobenzofuran-4-yl)methyl)-5-methyl-8-(trifluoromethyl)-6H-2,3,5a,9,12,13a-hexaazabenzo[4,5]cyclopenta[7,8]cycloocta[1,2,3-cd]inden-13-amine]
	10 to 100	Fc1ccc2c(c1CNc1ncc3c4c(ncn14)-c1nccn1Cc1cc(C(F)(F)F)ncc1-3)CCO2 [E 33, N-((5-fluoro-2,3-dihydrobenzofuran-4-yl)methyl)-8-(trifluoromethyl)-6H-2,3,5a,9,12,13a-hexaaza-benzo[4,5]cyclopenta[7,8]cycloocta[1,2,3-cd]inden-13-amine]
	< 10	O=C1c2ncn3c(NCc4c(F)ccc5c4CCO5)ncc(c23)-c2ccc(C3CC3)nc2CN1CC(F)(F)F [E 14, 7-cyclopropyl-12-(((5-fluoro-2,3-dihydrobenzo-furan-4-yl)methyl)amino)-4-(2,2,2-trifluoroethyl)-4,5-dihydro-3H-2,4,6,11,12a-pentaazabenzo[4,5] cycloocta[1,2,3-cd]inden-3-one]
